Assay results published in article doi:10.1101/2023.03.24.534094v2 (biorxiv, 2023).
Read-outs that look alike come from different tables or passages of the source. Blank lines part the entries; values can stand above or below the compound they belong to.

How the values were obtained:
Experiment in all cases: biochemical
[1] = target: MST3 (Homo sapiens, UniProt Q9Y6E0)
[2] = target: T1, MAP2K4 (Homo sapiens, UniProt P45985)
T1 sequence (P45985 1-399): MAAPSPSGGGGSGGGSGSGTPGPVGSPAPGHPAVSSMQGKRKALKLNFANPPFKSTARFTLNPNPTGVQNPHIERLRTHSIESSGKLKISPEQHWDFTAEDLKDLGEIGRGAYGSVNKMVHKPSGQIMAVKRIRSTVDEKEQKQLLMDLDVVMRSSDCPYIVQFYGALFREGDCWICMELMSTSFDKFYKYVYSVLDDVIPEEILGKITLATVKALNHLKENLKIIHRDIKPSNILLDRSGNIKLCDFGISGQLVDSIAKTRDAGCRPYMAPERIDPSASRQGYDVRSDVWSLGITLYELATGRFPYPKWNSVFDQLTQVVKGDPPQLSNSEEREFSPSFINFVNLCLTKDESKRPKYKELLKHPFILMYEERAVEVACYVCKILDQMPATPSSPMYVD

[3] = target: FLT1 (Homo sapiens, UniProt P17948)
[4] = target: T2, DYRK2 (Homo sapiens, UniProt Q92630)
T2 sequence (Q92630 1-601): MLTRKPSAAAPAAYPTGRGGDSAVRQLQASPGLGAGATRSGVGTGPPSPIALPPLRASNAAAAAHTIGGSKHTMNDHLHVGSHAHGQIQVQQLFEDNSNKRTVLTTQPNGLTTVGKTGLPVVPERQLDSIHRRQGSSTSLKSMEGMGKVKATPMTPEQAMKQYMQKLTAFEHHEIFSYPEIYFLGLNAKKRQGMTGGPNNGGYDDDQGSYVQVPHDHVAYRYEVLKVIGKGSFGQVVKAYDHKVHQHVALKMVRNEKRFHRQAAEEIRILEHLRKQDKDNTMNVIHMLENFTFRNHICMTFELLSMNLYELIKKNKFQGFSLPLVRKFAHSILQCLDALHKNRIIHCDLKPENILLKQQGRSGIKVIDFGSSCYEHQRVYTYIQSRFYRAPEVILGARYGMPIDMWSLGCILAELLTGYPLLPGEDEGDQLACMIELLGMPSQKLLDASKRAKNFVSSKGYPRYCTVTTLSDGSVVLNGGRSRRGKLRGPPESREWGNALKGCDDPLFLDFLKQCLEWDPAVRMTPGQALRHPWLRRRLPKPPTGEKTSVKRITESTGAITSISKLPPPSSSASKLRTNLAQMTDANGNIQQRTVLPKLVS

[5] = target: p38a (Homo sapiens, UniProt Q16539)
[6] = target: GSK3B (Homo sapiens, UniProt P49841)
[7] = target: T3, TTK (Homo sapiens, UniProt P33981)
T3 sequence (P33981 1-857): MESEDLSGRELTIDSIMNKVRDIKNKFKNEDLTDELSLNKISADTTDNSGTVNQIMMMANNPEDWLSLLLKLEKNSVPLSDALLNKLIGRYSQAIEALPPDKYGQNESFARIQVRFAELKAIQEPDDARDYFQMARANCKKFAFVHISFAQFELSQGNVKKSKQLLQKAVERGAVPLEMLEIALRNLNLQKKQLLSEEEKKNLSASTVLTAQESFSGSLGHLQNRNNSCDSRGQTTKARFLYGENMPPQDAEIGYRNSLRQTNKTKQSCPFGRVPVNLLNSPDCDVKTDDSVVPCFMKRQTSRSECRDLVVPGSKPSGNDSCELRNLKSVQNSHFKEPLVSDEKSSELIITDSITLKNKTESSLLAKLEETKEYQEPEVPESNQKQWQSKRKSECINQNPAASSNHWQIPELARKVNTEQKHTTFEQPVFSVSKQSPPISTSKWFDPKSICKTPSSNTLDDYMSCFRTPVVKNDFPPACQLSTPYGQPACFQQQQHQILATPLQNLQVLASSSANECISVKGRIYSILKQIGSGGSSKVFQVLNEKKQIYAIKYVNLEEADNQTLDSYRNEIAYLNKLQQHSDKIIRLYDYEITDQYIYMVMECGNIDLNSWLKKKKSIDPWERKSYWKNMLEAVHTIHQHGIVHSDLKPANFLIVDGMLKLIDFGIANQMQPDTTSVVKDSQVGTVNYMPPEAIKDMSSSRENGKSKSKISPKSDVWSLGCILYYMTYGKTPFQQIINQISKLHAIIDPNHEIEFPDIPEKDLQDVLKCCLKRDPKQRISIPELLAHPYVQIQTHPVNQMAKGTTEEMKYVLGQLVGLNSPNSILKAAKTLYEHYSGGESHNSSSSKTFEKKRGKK

[8] = target: Erk2 (Homo sapiens, UniProt P28482)
[9] = target: T4, ULK3 (Homo sapiens, UniProt Q6PHR2)
T4 sequence (Q6PHR2 1-472): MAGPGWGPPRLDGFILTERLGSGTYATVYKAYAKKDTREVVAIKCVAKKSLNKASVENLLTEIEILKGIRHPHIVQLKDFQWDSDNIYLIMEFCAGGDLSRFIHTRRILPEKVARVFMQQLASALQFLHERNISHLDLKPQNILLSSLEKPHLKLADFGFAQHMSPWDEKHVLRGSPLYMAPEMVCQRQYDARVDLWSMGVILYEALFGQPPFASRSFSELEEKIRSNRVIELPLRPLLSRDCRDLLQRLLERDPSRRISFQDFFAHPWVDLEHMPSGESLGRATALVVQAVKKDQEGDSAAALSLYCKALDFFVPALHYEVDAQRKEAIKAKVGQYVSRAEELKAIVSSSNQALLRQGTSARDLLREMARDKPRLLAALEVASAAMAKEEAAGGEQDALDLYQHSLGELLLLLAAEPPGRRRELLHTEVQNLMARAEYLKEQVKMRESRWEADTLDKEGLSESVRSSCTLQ

Sequence of Erk2 (P28482 whole entry): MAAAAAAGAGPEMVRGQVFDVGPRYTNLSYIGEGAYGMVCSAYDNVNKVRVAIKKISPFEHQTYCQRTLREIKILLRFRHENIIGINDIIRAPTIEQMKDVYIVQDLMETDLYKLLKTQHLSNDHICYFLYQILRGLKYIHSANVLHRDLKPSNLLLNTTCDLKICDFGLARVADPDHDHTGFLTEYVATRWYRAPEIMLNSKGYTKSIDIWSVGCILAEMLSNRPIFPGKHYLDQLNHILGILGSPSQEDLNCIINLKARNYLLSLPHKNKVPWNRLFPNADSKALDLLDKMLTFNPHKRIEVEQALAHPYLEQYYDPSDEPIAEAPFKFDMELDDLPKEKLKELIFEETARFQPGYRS
Sequence of MST3 (Q9Y6E0 whole entry): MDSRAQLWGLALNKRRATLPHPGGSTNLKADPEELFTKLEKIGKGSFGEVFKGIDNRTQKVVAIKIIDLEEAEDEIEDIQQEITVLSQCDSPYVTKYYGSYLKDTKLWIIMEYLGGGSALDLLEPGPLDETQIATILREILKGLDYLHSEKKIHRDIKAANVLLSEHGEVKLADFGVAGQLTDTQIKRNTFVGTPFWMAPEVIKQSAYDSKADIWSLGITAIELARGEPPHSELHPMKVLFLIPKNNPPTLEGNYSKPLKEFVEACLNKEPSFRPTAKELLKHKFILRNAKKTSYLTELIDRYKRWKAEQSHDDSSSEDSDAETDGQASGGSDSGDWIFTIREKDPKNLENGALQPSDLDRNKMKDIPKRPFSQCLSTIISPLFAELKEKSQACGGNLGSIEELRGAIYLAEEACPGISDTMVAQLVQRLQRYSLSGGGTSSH
Sequence of GSK3B (P49841 whole entry): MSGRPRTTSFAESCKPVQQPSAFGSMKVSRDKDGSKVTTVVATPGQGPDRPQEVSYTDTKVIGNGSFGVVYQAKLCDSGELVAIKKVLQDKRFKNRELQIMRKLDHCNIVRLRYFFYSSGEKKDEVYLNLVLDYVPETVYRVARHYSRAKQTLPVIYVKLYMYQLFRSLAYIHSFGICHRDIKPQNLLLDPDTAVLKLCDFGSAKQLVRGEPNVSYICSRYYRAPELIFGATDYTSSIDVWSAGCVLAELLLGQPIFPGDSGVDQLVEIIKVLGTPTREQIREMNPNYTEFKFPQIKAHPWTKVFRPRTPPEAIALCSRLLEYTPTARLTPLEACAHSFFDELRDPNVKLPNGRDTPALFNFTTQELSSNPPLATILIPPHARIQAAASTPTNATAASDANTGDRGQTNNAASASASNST
Sequence of p38a (Q16539 whole entry): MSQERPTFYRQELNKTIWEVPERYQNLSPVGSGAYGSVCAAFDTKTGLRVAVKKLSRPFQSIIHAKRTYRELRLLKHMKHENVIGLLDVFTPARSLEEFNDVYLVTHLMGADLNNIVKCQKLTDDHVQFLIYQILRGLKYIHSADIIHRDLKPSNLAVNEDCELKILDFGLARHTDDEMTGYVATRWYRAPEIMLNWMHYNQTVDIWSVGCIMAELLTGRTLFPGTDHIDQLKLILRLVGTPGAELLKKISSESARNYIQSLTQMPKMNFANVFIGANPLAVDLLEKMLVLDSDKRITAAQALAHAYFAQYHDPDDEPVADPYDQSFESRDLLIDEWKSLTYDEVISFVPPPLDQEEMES
Sequence of FLT1 (P17948 whole entry): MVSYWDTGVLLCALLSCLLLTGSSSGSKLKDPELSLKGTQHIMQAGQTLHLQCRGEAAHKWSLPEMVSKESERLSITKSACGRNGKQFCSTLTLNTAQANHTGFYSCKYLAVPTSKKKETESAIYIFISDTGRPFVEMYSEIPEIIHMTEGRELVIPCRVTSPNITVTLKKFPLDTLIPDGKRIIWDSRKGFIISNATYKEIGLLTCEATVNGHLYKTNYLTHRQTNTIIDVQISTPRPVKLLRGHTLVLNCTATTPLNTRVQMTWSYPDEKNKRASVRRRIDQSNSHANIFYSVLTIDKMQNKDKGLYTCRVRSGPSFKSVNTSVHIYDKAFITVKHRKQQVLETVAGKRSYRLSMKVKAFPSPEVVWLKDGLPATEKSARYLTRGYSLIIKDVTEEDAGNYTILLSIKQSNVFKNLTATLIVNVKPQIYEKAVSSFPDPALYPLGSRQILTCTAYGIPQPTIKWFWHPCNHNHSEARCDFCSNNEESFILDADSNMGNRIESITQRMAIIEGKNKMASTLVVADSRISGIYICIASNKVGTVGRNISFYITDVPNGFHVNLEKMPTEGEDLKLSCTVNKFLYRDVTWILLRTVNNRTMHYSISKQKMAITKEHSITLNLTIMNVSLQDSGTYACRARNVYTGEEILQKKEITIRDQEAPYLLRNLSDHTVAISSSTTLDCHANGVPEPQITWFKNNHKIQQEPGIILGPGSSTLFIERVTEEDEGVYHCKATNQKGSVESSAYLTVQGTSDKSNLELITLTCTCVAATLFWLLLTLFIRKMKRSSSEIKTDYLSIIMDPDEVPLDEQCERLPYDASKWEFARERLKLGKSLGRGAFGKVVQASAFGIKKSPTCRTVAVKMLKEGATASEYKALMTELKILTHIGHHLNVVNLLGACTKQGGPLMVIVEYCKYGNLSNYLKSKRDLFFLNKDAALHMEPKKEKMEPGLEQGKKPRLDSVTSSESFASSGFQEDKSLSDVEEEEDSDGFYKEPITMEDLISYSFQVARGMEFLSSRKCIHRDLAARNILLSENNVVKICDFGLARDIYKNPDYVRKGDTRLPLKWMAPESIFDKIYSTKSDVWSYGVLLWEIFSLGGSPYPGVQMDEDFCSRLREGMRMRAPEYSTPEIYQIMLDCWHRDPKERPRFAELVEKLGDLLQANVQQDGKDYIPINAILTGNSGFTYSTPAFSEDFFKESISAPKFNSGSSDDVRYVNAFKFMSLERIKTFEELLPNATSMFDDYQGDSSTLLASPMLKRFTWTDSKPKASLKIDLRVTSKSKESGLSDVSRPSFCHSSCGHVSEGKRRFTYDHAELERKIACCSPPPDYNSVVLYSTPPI

SMILES: CNc1ncc2cc(-c3cc(Br)ccc3Cl)c(=O)n(C[C@H]3OC[C@H](N)CO3)c2n1 [compound 7, 8-(((2r,5r)-5-Amino-1,3-dioxan-2-yl)methyl)-6-(5-bromo-2-chlorophenyl)-2-(methylamino)pyrido[2,3-d]pyrimidin-7(8H)-one]
- ΔTm at 10 µM ([2]; read-out: dTm 7): 2.1 °C
- ΔTm at 10 µM ([3]; read-out: dTm 7): 5.4 °C
- ΔTm at 10 µM ([4]; read-out: dTm 7): 0 °C
- ΔTm at 10 µM ([5]; read-out: dTm 7): 5.3 °C
- ΔTm at 10 µM ([9]; read-out: dTm 7): 0.6 °C
- ΔTm at 10 µM ([6]; read-out: dTm 7): 0.3 °C
- ΔTm at 10 µM ([7]; read-out: dTm 7): -0.2 °C
- ΔTm at 10 µM ([8]; read-out: dTm 7): 0 °C

SMILES: CNc1ncc2cc(-c3cc(F)ccc3F)c(=O)n(CCCCN)c2n1 [compound 5, 8-(4-Aminobutyl)-6-(2,5-difluorophenyl)-2-(methylamino)pyrido[2,3-d]pyrimidin-7(8H)-one]
- ΔTm at 10 µM ([2]; read-out: dTm MR22 (5)): 1.5 °C
- ΔTm at 10 µM ([3]; read-out: dTm MR22 (5)): 4.6 °C
- ΔTm at 10 µM ([4]; read-out: dTm MR22 (5)): 0.2 °C
- ΔTm at 10 µM ([5]; read-out: dTm MR22 (5)): -0.6 °C
- ΔTm at 10 µM ([9]; read-out: dTm MR22 (5)): 1.9 °C
- ΔTm at 10 µM ([6]; read-out: dTm MR22 (5)): 1.6 °C
- ΔTm at 10 µM ([7]; read-out: dTm MR22 (5)): -2.6 °C
- ΔTm at 10 µM ([8]; read-out: dTm MR22 (5)): -3.7 °C

SMILES: CNc1ncc2cc(-c3ccc(-c4cccc(C)n4)cc3Cl)c(=O)n(CC3OCC(N)CO3)c2n1 (stereo not drawn) [compound 2, G-5555]
- dTm G-5555 (2) ([2]; 10 µM, binder): 6.4 °C
- dTm G-5555 (2) ([3]; 10 µM, binder): 1.7 °C
- dTm G-5555 (2) ([4]; 10 µM, binder): -0.1 °C
- dTm G-5555 (2) ([5]; 10 µM, binder): 1.4 °C
- dTm G-5555 (2) ([9]; 10 µM, binder): 8.0 °C
- dTm G-5555 (2) ([6]; 10 µM, binder): 0.1 °C
- dTm G-5555 (2) ([7]; 10 µM, binder): 1.5 °C
- dTm G-5555 (2) ([8]; 10 µM, binder): 1.4 °C

SMILES: CNc1ncc2cc(-c3ccccc3Cl)c(=O)n(CCCCN)c2n1 [compound 4, 8-(4-Aminobutyl)-6-(2-chlorophenyl)-2-(methylamino)pyrido[2,3-d]pyrimidin-7(8H)-one]
- ΔTm at 10 µM ([2]; read-out: dTm MR21 (4)): 3.3 °C
- ΔTm at 10 µM ([3]; read-out: dTm MR21 (4)): 5.4 °C
- ΔTm at 10 µM ([4]; read-out: dTm MR21 (4)): 0 °C
- ΔTm at 10 µM ([5]; read-out: dTm MR21 (4)): 8.8 °C
- ΔTm at 10 µM ([9]; read-out: dTm MR21 (4)): 2.4 °C
- ΔTm at 10 µM ([6]; read-out: dTm MR21 (4)): 2.7 °C
- ΔTm at 10 µM ([7]; read-out: dTm MR21 (4)): 0.9 °C
- ΔTm at 10 µM ([8]; read-out: dTm MR21 (4)): 1 °C

Results, then the compound that gave them:

- ΔTm at 10 µM ([1]; read-out: ∆Tm 8): 1.9 °C
SMILES: CNc1ncc2cc(-c3cc(Cl)ccc3Cl)c(=O)n(CCCCN)c2n1 [compound 8, 8-(4-Aminobutyl)-6-(2,5-dichlorophenyl)-2-(methylamino)pyrido[2,3-d]pyrimidin-7(8H)-one]

- ΔTm at 10 µM ([1]; read-out: ∆Tm 11): 1.9 °C
SMILES: CNc1ncc2cc(-c3cc(Br)ccc3Br)c(=O)n(CCCCN)c2n1 [compound 11, 8-(4-Aminobutyl)-6-(2,5-dibromophenyl)-2-(methylamino)pyrido[2,3-d]pyrimidin-7(8H)-one]

- ΔTm at 10 µM ([2]; read-out: dTm 6): 2.5 °C
- ΔTm at 10 µM ([3]; read-out: dTm 6): 6 °C
- ΔTm at 10 µM ([4]; read-out: dTm 6): -0.1 °C
- ΔTm at 10 µM ([5]; read-out: dTm 6): 5.6 °C
- ΔTm at 10 µM ([6]; read-out: dTm 6): 1 °C
- ΔTm at 10 µM ([7]; read-out: dTm 6): 0.2 °C
- ΔTm at 10 µM ([8]; read-out: dTm 6): 0 °C
SMILES: CNc1ncc2cc(-c3cc(Br)ccc3Cl)c(=O)n(CCCCN)c2n1 [compound 6, 8-(4-Aminobutyl)-6-(5-bromo-2-chlorophenyl)-2-(methylamino)pyrido[2,3-d]pyrimidin-7(8H)-one]

- ΔTm at 10 µM ([1]; read-out: ∆Tm 10): 2 °C
SMILES: CNc1ncc2cc(-c3cc(Cl)ccc3Br)c(=O)n(CCCCN)c2n1 [compound 10, 8-(4-Aminobutyl)-6-(2-bromo-5-chlorophenyl)-2-(methylamino)pyrido[2,3-d]pyrimidin-7(8H)-one]
